Results: PubChem BioAssay AID248 (DTP/NCI, 2004)
Where “and” joins values, the source holds several entries; their conditions need not be identical. Equal values may be shown once. Toxic doses and inconclusive results are not listed. No stated cut-off is given here; in the data, active means T/C of 150% or more; inactive means T/C below 125%. Square brackets hold non-standard residues; d marks the D form. Peptide text beside a SMILES is read from it. Sar = CNCC(=O)O

Tested on: L1210 leukemia ip in BDF1 mice, survival T/C
Experiment: NCI In Vivo Anticancer Drug Screen. Data for tumor model L1210 Leukemia (intraperitoneal) in B6D2F1 (BDF1) mice
Conditions: endpoint: mean survival time, higher = longer survival
Procedure, shortened: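 Ratio derived from survival: compound-dosed mice over vehicle-dosed mice, all bearing a transplantable tumor.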

[1] = dose: 100.0 mg/kg/injection, schedule: Q01DX009 (ip), vehicle: saline with Tween-80
[2] = dose: 100.0 mg/kg/injection, schedule: Q04DX003 (ip), vehicle: saline with Tween-80
[3] = dose: 200.0 mg/kg/injection, schedule: Q01DX009 (ip), vehicle: saline with Tween-80
[4] = dose: 200.0 mg/kg/injection, schedule: Q04DX003 (ip), vehicle: saline with Tween-80
[5] = dose: 400.0 mg/kg/injection, schedule: Q04DX003 (ip), vehicle: saline with Tween-80
[6] = dose: 100.0 mg/kg/injection, schedule: Q04DX003 (ip), vehicle: Klucel (hydroxypropylcellulose) (HPC)
[7] = dose: 200.0 mg/kg/injection, schedule: Q04DX003 (ip), vehicle: Klucel (hydroxypropylcellulose) (HPC)
[8] = dose: 400.0 mg/kg/injection, schedule: Q04DX003 (ip), vehicle: Klucel (hydroxypropylcellulose) (HPC)
[9] = dose: 100.0 mg/kg/injection, schedule: Q04DX002 (ip), vehicle: saline
[10] = dose: 100.0 mg/kg/injection, schedule: Q04DX003 (ip), vehicle: saline
[11] = dose: 200.0 mg/kg/injection, schedule: Q04DX003 (ip), vehicle: saline
[12] = dose: 400.0 mg/kg/injection, schedule: Q04DX003 (ip), vehicle: saline
[13] = dose: 75.0 mg/kg/injection, schedule: Q01DX009 (ip), vehicle: Klucel (hydroxypropylcellulose) (HPC)
[14] = dose: 50.0 mg/kg/injection, schedule: Q01DX009 (ip), vehicle: Klucel (hydroxypropylcellulose) (HPC)

Measured: T/C

OCCNCc1ccc2ccccc2n1
inactive: dose: 75.0 mg/kg/injection, schedule: Q04DX003 (ip), vehicle: saline 96 % of control | dose: 150.0 mg/kg/injection, schedule: Q04DX003 (ip), vehicle: saline 100 % of control | dose: 300.0 mg/kg/injection, schedule: Q04DX003 (ip), vehicle: saline 96 % of control

CCOC(=O)CC(=O)c1ccc(C(=O)CC(=O)O)cc1 (tested in a mixture with another compound)
inactive: dose: 25.6 mg/kg/injection, schedule: Q04DX002 (ip), vehicle: saline with Tween-80 87 % of control | dose: 50.0 mg/kg/injection, schedule: Q01DX009 (ip), vehicle: saline with Tween-80 89 % of control | dose: 64.0 mg/kg/injection, schedule: Q04DX002 (ip), vehicle: saline with Tween-80 95 % of control | [1] 96 % of control | [2] 90 % of control | dose: 160.0 mg/kg/injection, schedule: Q04DX002 (ip), vehicle: saline with Tween-80 91 % of control | [3] 88 % of control | [4] 87 % of control | dose: 400.0 mg/kg/injection, schedule: Q04DX002 (ip), vehicle: saline with Tween-80 87 % of control

Fc1cccc(N2CCOCC2)c1
inactive: dose: 50.0 mg/kg/injection, schedule: Q01DX001 (ip), vehicle: saline 101 % of control | dose: 100.0 mg/kg/injection, schedule: Q01DX001 (ip), vehicle: saline 93 % of control | dose: 200.0 mg/kg/injection, schedule: Q01DX001 (ip), vehicle: saline 101 % of control

C/C(=C/c1ccccc1)OC(=O)c1ccccc1
inactive: dose: 50.0 mg/kg/injection, schedule: Q01DX001 (ip), vehicle: carboxymethylcellulose (CMC) 87 % of control | dose: 100.0 mg/kg/injection, schedule: Q01DX001 (ip), vehicle: carboxymethylcellulose (CMC) 86 % of control

O=C(O)Cn1cnc2cncnc21
inactive: [2] 118 % of control | [4] 104 % of control | [5] 102 % of control

O=P(Nc1ccc(Cl)c(Cl)c1)(N1CCCCC1)N1CCCCC1
inactive: [6] 93 % of control | [7] 91 % of control | [8] 93 % of control

COC(=O)Nc1cccc(C)c1C
inactive: dose: 100.0 mg/kg/injection, schedule: Q04DX003 (ip), vehicle: other 103 % of control | dose: 200.0 mg/kg/injection, schedule: Q04DX003 (ip), vehicle: other 102 % of control | dose: 400.0 mg/kg/injection, schedule: Q04DX003 (ip), vehicle: other 108 % of control

CCC(=O)Nc1cccc(OC(=O)NCC(C)C)c1
inactive: [1] 92 % of control | [3] 94 % of control | dose: 400.0 mg/kg/injection, schedule: Q01DX009 (ip), vehicle: saline with Tween-80 91 % of control

CC(C)c1nc(-c2ccccc2)c(-c2ccccc2)[nH]1
inactive: [2] 93 % of control | [4] 98 % of control | [5] 93 % of control

O=C(CBr)c1ccc(/C=C/c2ccc(Cl)cc2)cc1
inactive: [1] 94 % of control

CC(C)C(NC(=O)C(F)(F)F)C(=O)O (configuration not stated)
inactive: dose: 87.5 mg/kg/injection, schedule: Q04DX003 (ip), vehicle: saline 90 % of control | dose: 175.0 mg/kg/injection, schedule: Q04DX003 (ip), vehicle: saline 89 % of control

Clc1c(Cl)c(Cl)c([S][Pb]([c]2ccccc2)([c]2ccccc2)[c]2ccccc2)c(Cl)c1Cl
inactive: dose: 6.25 mg/kg/injection, schedule: Q01DX009 (ip), vehicle: saline with Tween-80 101 % of control | dose: 12.5 mg/kg/injection, schedule: Q01DX009 (ip), vehicle: saline with Tween-80 103 % of control | dose: 25.0 mg/kg/injection, schedule: Q01DX009 (ip), vehicle: saline with Tween-80 104 % of control and 88 % of control | dose: 25.0 mg/kg/injection, schedule: Q04DX002 (ip), vehicle: saline with Tween-80 96 % of control | dose: 50.0 mg/kg/injection, schedule: Q04DX002 (ip), vehicle: saline with Tween-80 99 % of control | dose: 100.0 mg/kg/injection, schedule: Q04DX002 (ip), vehicle: saline with Tween-80 86 % of control and 88 % of control

CCN(CC)CCN(C(=O)C(O)(c1ccccc1)c1ccccc1)C(C)C
inactive: [9] 101 % of control | dose: 200.0 mg/kg/injection, schedule: Q04DX002 (ip), vehicle: saline 108 % of control

CC(=O)/C=N/NC(=O)C(O)C(O)C(O)C(O)CO (configuration not stated)
inactive: [10] 102 % of control | [11] 94 % of control | [12] 91 % of control

CC(C)(C)c1cccc(C(C)(C)C)c1OC(=O)NS(=O)(=O)c1ccccc1
inactive: dose: 12.5 mg/kg/injection, schedule: Q01DX009 (ip), vehicle: acetone 98 % of control | dose: 25.0 mg/kg/injection, schedule: Q01DX009 (ip), vehicle: acetone 94 % of control | dose: 50.0 mg/kg/injection, schedule: Q01DX009 (ip), vehicle: acetone 91 % of control | [13] 96 % of control | dose: 115.0 mg/kg/injection, schedule: Q01DX009 (ip), vehicle: Klucel (hydroxypropylcellulose) (HPC) 98 % of control

COC(=O)OCCOC(=O)OC
inactive: dose: 100.0 mg/kg/injection, schedule: Q01DX009 (ip), vehicle: saline 105 % of control | [10] 100 % of control | dose: 200.0 mg/kg/injection, schedule: Q01DX009 (ip), vehicle: saline 101 % of control | [11] 102 % of control | dose: 400.0 mg/kg/injection, schedule: Q01DX009 (ip), vehicle: saline 100 % of control | [12] 103 % of control

CC(=O)/C(=C\c1ccccc1)c1ccccc1
inactive: [6] 96 % of control | [7] 91 % of control | [8] 98 % of control

CN(CC(=O)O)C(=O)CN (H-Gly-[Sar]-OH)
inactive: dose: 25.0 mg/kg/injection, schedule: Q04DX002 (ip), vehicle: saline 113 % of control | dose: 50.0 mg/kg/injection, schedule: Q04DX002 (ip), vehicle: saline 97 % of control | [9] 103 % of control

COC1(OC)C2C=CC1C1C(=O)CC1C(=O)C2 (configuration not stated)
inactive: [13] 108 % of control | dose: 100.0 mg/kg/injection, schedule: Q01DX001 (ip), vehicle: Klucel (hydroxypropylcellulose) (HPC) 100 % of control | dose: 150.0 mg/kg/injection, schedule: Q01DX009 (ip), vehicle: Klucel (hydroxypropylcellulose) (HPC) 113 % of control | dose: 200.0 mg/kg/injection, schedule: Q01DX001 (ip), vehicle: Klucel (hydroxypropylcellulose) (HPC) 103 % of control | dose: 300.0 mg/kg/injection, schedule: Q01DX009 (ip), vehicle: Klucel (hydroxypropylcellulose) (HPC) 105 % of control | dose: 400.0 mg/kg/injection, schedule: Q01DX001 (ip), vehicle: Klucel (hydroxypropylcellulose) (HPC) 90 % of control

CNC(=O)OCc1c(COC(=O)NC)c(-c2ccc(OC)cc2)n2c1CCC2
inactive: [14] 109 % of control | dose: 100.0 mg/kg/injection, schedule: Q01DX009 (ip), vehicle: Klucel (hydroxypropylcellulose) (HPC) 117 % of control | dose: 200.0 mg/kg/injection, schedule: Q01DX009 (ip), vehicle: Klucel (hydroxypropylcellulose) (HPC) 98 % of control

NC1CCC(CC2CCCCC2)CC1 (configuration not stated)
inactive: dose: 25.0 mg/kg/injection, schedule: Q01DX009 (ip), vehicle: Klucel (hydroxypropylcellulose) (HPC) 96 % of control | dose: 25.0 mg/kg/injection, schedule: Q04DX003 (ip), vehicle: Klucel (hydroxypropylcellulose) (HPC) 95 % of control | [14] 98 % of control | dose: 50.0 mg/kg/injection, schedule: Q04DX003 (ip), vehicle: Klucel (hydroxypropylcellulose) (HPC) 100 % of control | [6] 91 % of control
